Laboratory results as given in PMC4912613, “A broad analysis of resistance development in the malaria parasite” (Nature Communications, 2016).

What was measured:
[1] = tested on: 15 resistant strains and their parents; test: Cross-resistance panel, asexual blood stage proliferation EC50 fold shifts (all strains); type: cell-based, Plasmodium falciparum; conditions: for EC50 fold-shifts in resistant lines relative to parent clones: loss of efficacy in some resistant lines
From the text: (§1) To evaluate potential overlapping activity against known antimalarial drug targets, we performed dose-response studies with each compound against our assembled set of drug-resistant lines and their corresponding parents, in an asexual blood stage proliferation assay (Table 1). Comparisons were made to the drug-sensitive strain 3D7 when a parent was unavailable (TM90C2A, W2 and Dd2). As laboratories conducted EC50 assays with different strains and protocols, all comparisons were made between assays from the same laboratory and under the same assay conditions. Compounds displaying >5-fold EC50 shifts relative to the parent or sensitive strain were flagged as having potentially non-novel targets. Average fold shifts per strain ranged from 0.82 to 2.34, with a median of 1.23 indicating there was not common resistance to any one resistant clone. No resistance patterns were observed when classifying the compounds based on chemical structure, but this was not surprising given the diversity of compounds chosen. […]
(§2) The 48-h assay was carried out in a 96-well format following standard methods using the ^3H-hypoxanthine incorporation assay. […] Radioactivity was measured using a microbeta counter. […] All assays were conducted in triplicate using three independently grown cultures, and EC50 values were determined using the XLfit add-in module for Excel (version 2.3.1) from Grafit (version 5.3.1.3), where parameter h is the assay hill slope, x is the compound concentration and y is the inhibition of growth effect. […]
(§3) Alternatively, a SYBR Green-based proliferation approach was used for the 72-h assay, as previously described. […] Following incubation, 10 × SYBR Green I (Invitrogen; supplied in 10,000 × concentration) in lysis buffer ([…], 5 mM EDTA, 0.16% Saponin wt per vol and 1.6% Triton X vol per vol) was added to the wells and the plates were incubated overnight at room temperature before plate reading. […]

[2] = tested on: PfATP4-Mut3 (PfATP4 F917L, parent 3D7); type: cell-based, Plasmodium falciparum
From the text: as §1, with “clone.” for “clone. No resistance patterns were observed when classifying the compounds based on chemical structure, but this was not surprising given the diversity of compounds chosen.”
as §2

[3] = tested on: PfATP4-Mut2 (PfATP4 P412L, parent W2); test: Cross-resistance EC50 assay, PfATP4-Mut2; type: cell-based, Plasmodium falciparum
From the text: as §1, §2, §3

Hepatocyte toxicity = type: cell-based, human; conditions: human; read-out: HepG2 EC50 (hepatocyte toxicity)
How it was run: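 HepG2 cells were pretreated with compound for 2 h, then infected with fresh P. berghei sporozoites. After 48 h, exoerythrocytic-form viability was read by BrightGlo luminescence; hepatocyte toxicity was tested in parallel. EC50s came from 12-point curves run in duplicate, starting at 5 μM or 50 μM.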

[4] = tested on: resistant parasites generated by MMV007564; test: Cross-resistance to parasites selected with MMV007564; type: cell-based, Plasmodium falciparum
From the text: While we found an overall lack of pre-existing resistance, analysing the onset of resistance was critical, as compounds resulting in rapid resistance are not ideal for clinical development. We therefore sought to create drug-resistant parasites using a variety of different selection methods. We implemented either a high-dose method or a ramp-up/pulse method for our in vitro selections. Two of the 50 compounds—MMV028895 and MMV665824—were removed from the selection study during experimentation. […] Out of the remaining 48 compounds, resistant parasites were obtained for 23 (Supplementary Data 1). As each selection was performed in triplicate with three independent cultures, we succeeded in generating a total of 66 resistant cultures. Parasites resistant to MMV026596 were not obtained despite 100 days of selection, but the cultures acquired hypersensitivity to mefloquine with a 10-fold reduction in EC50 compared with its parental line, 3D7. For the remaining 24 compounds, acquisition of resistant parasites was unsuccessful despite numerous attempts over an extensive period of time.

[5] = tested on: PfATP4-Mut1 (PfATP4 V178I, parent W2); test: Cross-resistance EC50 assay, PfATP4-Mut1; type: cell-based, Plasmodium falciparum; conditions: loss of efficacy
From the text: as §1, with “clone.” for “clone. No resistance patterns were observed when classifying the compounds based on chemical structure, but this was not surprising given the diversity of compounds chosen.”
as §2

Cc1c(C)n(Cc2ccc(F)cc2)c2ccc(C(=O)NCc3ccco3)cc12 [MMV008149]
EC50 fold-shifts in resistant lines relative to parent clones [1]: > 5 fold

CCN(CC)S(=O)(=O)c1ccc(-c2csc(Nc3ccc(C)c(C)c3)n2)cc1 [MMV009108]
EC50 fold-shift, ATP4-Mut3 vs parent [2]: 5.2 × | EC50 fold-shift, ATP4-Mut2 vs parent [3]: 23 ×

COc1ccccc1CNC(=O)CCn1c(=O)[nH]c2ccsc2c1=O [MMV019066]
EC50 fold-shifts in resistant lines relative to parent clones [1]: > 5 fold

CN(C)S(=O)(=O)c1cc(-c2ccc3nccc(-c4cccc(S(N)(=O)=O)c4)c3c2)cnc1N [MMV024038]
EC50 (Hepatocyte toxicity): 0.146 µM

CC(C)c1cccc(C(NC(=O)C2Cc3ccccc3CN2C(=O)c2cccc(N3CCOCC3)c2)C2CCCC2)c1 (stereo not shown) [MMV028038]
EC50 fold-shift, ATP4-Mut2 vs parent [3]: 5 ×

CN(C)CCCN(C)C(=O)C1Cc2cc(-c3ccccc3)ccc2N1S(=O)(=O)c1ccccc1 (stereo not shown) [MMV028895]
EC50 fold-shift, other Dd2 clones compared with 3D7, average ([1]; Dd2-derived clones, average): 5.5 × | cross-resistance to resistant parasites generated by MMV007564 [4]: exhibited cross-resistance

O=C(Nc1ccsc1C(=O)NC1CCCCC1)c1ccc(F)cc1 [MMV665939]
EC50 fold-shift, PfATP4-Mut2 compared with 3D7 ([3]; loss of efficacy): 18.9 × | EC50 fold-shift, PfATP4-Mut1 compared with 3D7 [5]: 16.6 ×
